The test system of assay [1] is cultured embryonic rat cortical neurons. Briefly: Neuritogenesis experiments (Sholl analysis) in cortical cultures. The conditions noted are these: for promoting neuritogenesis: cultured embryonic rat cortical neurons, DIV6, 10 μM (0.1% DMSO) unless noted otherwise, 72 h treatment, FIGS. 1B-1D, 2B-2D. The format is cell-based. On the procedure:
(§1) Primary cortical cultures were prepared using tissue from embryonic day 18 (E18) Sprague Dawley rats. Cells were plated at various densities on poly-D-lysine coated plates depending on the specific experiment (vide infra). Plating media consisted of 10% heat-inactivated FBS (Life Technologies), 1% penicillin-streptomycin (Life Technologies), and 0.5 mM glutamine (Life Technologies) in Neurobasal (Life Technologies). After 15-24 h, the media was removed and exchanged for replacement media containing 1×B27 supplement (Life Technologies), 1% penicillin-streptomycin, 0.5 mM glutamine, 12.5 μM glutamate, and Neurobasal. After 96 h, 50% of the media was removed and replaced with feed media containing 1×B27 supplement, 1% penicillin-streptomycin, and 0.5 mM glutamine. Once per week until the cultures had reached sufficient maturity for experiments, 50% of the culture media was removed and replaced with feed media, with an additional 20% by volume being added to account for evaporation. For experiments using antagonists/inhibitors, cells were pretreated with ANA-12 (10 μM), rapamycin (100 nM), and ketanserin (100 μM) for 10 min prior to the addition of test compounds. The final DMSO concentration of these experiments was 0.2%. The neurons used in each cellular experiment were taken from at least two different treatment wells and the wells were randomized to account for plate effects. All of the cellular experiments were replicated on at least two occasions by two or more experimenters.
All compounds were dissolved in DMSO and diluted 1:1000 with the exception that BDNF was dissolved in water. Cells were treated with the compound at a final concentration of 90 μM (0.1% DMSO) while all other compounds were treated at 10 μM (0.1% DMSO) unless noted otherwise. For in vivo studies, the compound was dissolved in sterile 0.9% saline and administered intraperitoneally at a dose of 10 mg/kg and an injection volume of 10 mL/kg.
After 3 days in vitro (DIV 3), approximately 50,000 cells/well in poly-D-lysine coated 24 well plates were treated. Treatment was accomplished by first diluting DMSO stock solutions of compounds 1:10 in Neurobasal followed by a 1:100 dilution into each well (total dilution=1:1000). After 72 h, cells were fixed by removing 80% of the media and replacing it with a volume of 4% aqueous paraformaldehyde (Alfa Aesar) equal to 50% of the working volume of the well. Then, the cells were allowed to sit for 20 min at room temperature before the fixative was aspirated and each well washed twice with DPBS. Cells were permeabilized using 0.2% Triton X-100 (ThermoFisher) in DPBS for 20 minutes at room temperature without shaking. Plates were blocked with antibody diluting buffer (ADB) containing 2% bovine serum albumin (BSA) in DPBS for 1 h at room temperature. Then, plates were incubated overnight at 4° C. with gentle shaking in ADB and a chicken anti-MAP2 antibody (1:10,000; EnCor, CPCA-MAP2). The next day, plates were washed three times with DPBS and once with 2% ADB in DPBS. Plates were incubated for 1 h at room temperature in ADB containing an anti-chicken IgG secondary antibody conjugated to Alexa Fluor 488 (Life Technologies, 1:500) and washed five times with DPBS. After the final wash, 500 μL of DPBS was added per well and imaged on a Leica inverted epifluorescence microscope at 40× magnification. Images were analyzed using the Simple Neurite Tracer and Sholl analysis plug-ins for ImageJ Fiji (version 1.51N). All images were taken and analyzed by an experimenter blinded to treatment conditions.

The test system is the same in assay [2]. In words: Spinogenesis experiments (spine density) in cortical cultures. Type of assay: cell-based. The conditions noted are these: cortical cultures treated for 24 h at DIV 18; FIG. 1E and FIG. 2E. As for the experimental part: as §1, with “The final DMSO concentration of these experiments was 0.2%. The neurons used in each cellular experiment were taken from at least two different treatment wells and the wells were randomized to account for plate effects. All of the cellular experiments were replicated on at least two occasions by two or more experimenters.” left out
Cells were plated at a density of 35,000 cells/well on glass coverslips in 24 well plates. […] Dendritic spines were counted manually by a trained experimenter who was blinded to the treatment conditions.

Assay [3] relates to BDNF. Briefly: BDNF ELISA assay in cortical neurons. The format is cell-based, rat. On the procedure:
as §1
Cortical cultures were grown in 6-well plates (600,000 cells per well). At DIV 17-18, all media was removed and replaced with fresh Neurobasal. After 4 h, each well was treated with compound dissolved in DMSO (1:1000) for 24 h. After the treatment period, the media was removed and the cells washed once with ice-cold DPBS. To each well was added 200 μL of Cell Extraction Buffer (Life Technologies) supplemented with cOmplete and PhoSTOP inhibitors, and incubated on ice for 5-10 min. Plates were scrapped and the contents collected. […]
(In an ELISA, binding on a coated surface is turned into a signal by an enzyme label.)

Regarding `CN(C)CCc1c[nH]c2cc(F)ccc12` [6-fluoro-DMT, 6-fluoro-N,N-dimethyltryptamine], the promoting neuritogenesis entry in assay [1] is listed as “capable of robustly promoting neuritogenesis”.
On to `COc1ccc2c(CCN(C)C)c[nH]c2c1` [6-methoxy-DMT, 6-methoxy-N,N-dimethyltryptamine], for which the promoting neuritogenesis entry in assay [1] is reported as “capable of robustly promoting neuritogenesis”.
`CCN(CC)C(=O)N[C@H]1C=C2c3cccc4[nH]cc(c34)C[C@H]2N(C)C1` [lisuride, Lisuride]: the “spinogenesis in cortical cultures” value in assay [2] was “increased spinogenesis”. Moreover, in assay [1] (cortical cultures, dose response was not clearly observed, FIGS. 3A and 3B), the “dose-response of effects on neurite outgrowth” value is listed as “exhibiting activity across 8-orders of magnitude into the femtomolar range”. In addition, in assay [1], the promoting neuritogenesis result is reported as “capable of robustly promoting neuritogenesis”. Moreover, the “BDNF protein levels in the presence of TrkB antagonist ANA-12” value in assay [3] (cortical cultures, 24 h treatment, with ANA-12, FIG. 6) was “negates the increase in BDNF protein levels”. In assay [3] (cortical neurons, after 24 hours treatment, ELISA, FIG. 5), the “protein levels of BDNF protein” value is given as “increased the protein levels of BDNF protein”. The “translation of BDNF on co-treatment with sigma antagonist BD1063” value in assay [3] (cultured cortical neurons co-treated with BD1063, 24 hour treatment, FIG. 7) is given as “completely blocked the increased translation of BDNF”.
For `CN(C)CCc1c[nH]c2ccc(Cn3cncn3)cc12` [rizatriptan, Rizatriptan], the “spinogenesis in cortical cultures” value in assay [2] is listed as “increased spinogenesis”. Further, the promoting neuritogenesis entry in assay [1] was “capable of robustly promoting neuritogenesis”.

B1: BDNF: brain-derived neurotrophic factor, recombinant neurotrophin, Sigma-Aldrich (protein, UniProt P23560 19-247, looked up)
Neurotrophic factor BDNF …: APMKEANIRGQGGLAYPGVRTHGTLESVNGPKAGSRGLTSLADTFEHVIEELLDEDQKVRPNEENNKDADLYTSRVMLSSQVPLEPPLLFLLEEYKNYLDAANMSMRVRRHSDPARRGELSVCDSISEWVTAADKKTAVDMSGGTVTVLEKVPVSKGQLKQYFYETKCNPMGYTKEGCRGIDKRHWNSQCRTTQSYVRALTMDSKKRIGWRFIRIDTSCVCTLTIKRGR
Consider B1, for which the “dose response of effects on dendritic arbor complexity” value in assay [1] (recombinant BDNF 50 ng/mL vs 100-fold dilution, FIG. 4) is reported as “significantly less potent following a 100-fold dilution”.

Values taken from patent US12343337B2, “Compounds for increasing neural plasticity” (THE REGENTS OF THE UNIVERSITY OF CALIFORNIA, priority 2016, dated 2025).
